Measured values taken from patent US12522601B2, “1,3,4-oxadiazole derivative compounds as histone deacetylase 6 inhibitor, and the pharmaceutical composition comprising the same” (CHONG KUN DANG PHARMACEUTICAL CORP., priority 2020, dated 2026).

How the values were obtained:
human recombinant HDAC1 = target: T1, human recombinant HDAC1 (Homo sapiens, UniProt Q13547); experiment: In vitro HDAC enzyme activity inhibition assay, HDAC1 (HDAC Fluorimetric Drug Discovery Kit); assay type: biochemical; conditions: human recombinant HDAC1, Fluor de Lys-SIRT1 substrate 10 μM, 30° C. for 60 minutes
T1 construct: purchased Enzo Life Sciences, Inc. BML-SE456
Outline: (§1)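 Both HDAC1 and HDAC6 (human recombinant, 0.3 μg) tested identically: 10 μM fluorogenic Fluor de Lys-SIRT1 substrate, reaction 60 min at 30° C, developer added for 30 min. IC50 calculated from Ex 360/Em 460 signal over 5-fold serial dilutions.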

human recombinant HDAC6 = target: T2, human recombinant HDAC6 (Homo sapiens, UniProt Q9UBN7); experiment: In vitro HDAC enzyme activity inhibition assay, HDAC6 (HDAC Fluorimetric Drug Discovery Kit); assay type: biochemical; conditions: for HDAC6 Selectivity (fold): HDAC6 versus HDAC1; for IC50: human recombinant HDAC6, same protocol as the HDAC1 test
T2 construct: purchased Calbiochem Inc. 382180
T2 sequence (Q9UBN7 1-1215): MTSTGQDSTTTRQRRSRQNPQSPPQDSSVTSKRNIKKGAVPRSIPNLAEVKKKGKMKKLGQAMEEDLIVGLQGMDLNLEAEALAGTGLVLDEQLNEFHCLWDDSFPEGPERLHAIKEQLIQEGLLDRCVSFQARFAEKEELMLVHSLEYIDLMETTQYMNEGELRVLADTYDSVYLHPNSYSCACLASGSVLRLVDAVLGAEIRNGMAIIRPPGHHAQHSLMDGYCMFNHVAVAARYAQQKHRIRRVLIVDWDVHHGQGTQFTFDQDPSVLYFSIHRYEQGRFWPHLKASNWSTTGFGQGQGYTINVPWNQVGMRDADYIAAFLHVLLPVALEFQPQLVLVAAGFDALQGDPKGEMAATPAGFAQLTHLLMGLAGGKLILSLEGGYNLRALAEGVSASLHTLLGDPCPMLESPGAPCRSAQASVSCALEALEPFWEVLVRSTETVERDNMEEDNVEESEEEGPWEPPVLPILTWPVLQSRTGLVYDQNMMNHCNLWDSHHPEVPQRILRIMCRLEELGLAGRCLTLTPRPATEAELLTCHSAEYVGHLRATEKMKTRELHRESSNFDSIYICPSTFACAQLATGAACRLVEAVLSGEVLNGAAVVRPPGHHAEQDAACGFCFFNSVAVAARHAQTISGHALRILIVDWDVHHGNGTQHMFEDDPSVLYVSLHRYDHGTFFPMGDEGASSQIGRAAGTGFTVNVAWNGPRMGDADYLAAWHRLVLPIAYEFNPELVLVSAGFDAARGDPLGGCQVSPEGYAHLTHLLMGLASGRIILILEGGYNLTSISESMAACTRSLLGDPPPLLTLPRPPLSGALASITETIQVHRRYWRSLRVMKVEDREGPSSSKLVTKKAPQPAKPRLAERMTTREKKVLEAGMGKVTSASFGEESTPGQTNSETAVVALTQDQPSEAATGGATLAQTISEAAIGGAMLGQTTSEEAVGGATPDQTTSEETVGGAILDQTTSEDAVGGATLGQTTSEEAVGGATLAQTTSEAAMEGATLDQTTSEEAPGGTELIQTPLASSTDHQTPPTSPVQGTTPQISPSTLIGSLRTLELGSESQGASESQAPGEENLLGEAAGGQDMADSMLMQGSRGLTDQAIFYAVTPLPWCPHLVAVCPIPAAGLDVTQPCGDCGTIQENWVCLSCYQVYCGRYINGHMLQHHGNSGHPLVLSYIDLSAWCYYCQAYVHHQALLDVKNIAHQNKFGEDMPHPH
Outline: as §1

T1 sequence (Q13547 whole entry): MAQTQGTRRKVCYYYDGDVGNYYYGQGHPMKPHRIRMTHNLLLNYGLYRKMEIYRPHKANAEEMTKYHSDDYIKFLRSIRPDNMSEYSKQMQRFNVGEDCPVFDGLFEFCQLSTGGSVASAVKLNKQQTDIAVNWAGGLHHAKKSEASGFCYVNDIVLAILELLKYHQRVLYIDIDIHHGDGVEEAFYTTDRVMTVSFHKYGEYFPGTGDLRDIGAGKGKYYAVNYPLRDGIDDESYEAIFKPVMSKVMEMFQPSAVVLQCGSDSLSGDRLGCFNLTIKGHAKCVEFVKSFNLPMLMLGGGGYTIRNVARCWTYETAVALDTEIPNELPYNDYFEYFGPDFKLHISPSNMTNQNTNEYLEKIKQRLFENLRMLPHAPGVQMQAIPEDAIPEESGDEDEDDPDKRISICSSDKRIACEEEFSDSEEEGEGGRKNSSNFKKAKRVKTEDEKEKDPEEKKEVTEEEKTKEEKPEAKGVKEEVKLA

SMILES	IC50 (human recombinant HDAC1) [µM]	HDAC6 Selectivity (fold) (human recombinant HDAC6)	IC50 (human recombinant HDAC6) [µM]
O=C(C1CN(C2CCOCC2)C1)N(Cc1cn2ccc(-c3nnc(C(F)F)o3)cc2n1)c1cccc(F)c1 [Compound 4195, N-((7-(5-(difluoromethyl)-1,3,4-oxadiazol-2-yl)imidazo[1,2-a]pyridin-2-yl)methyl)-N-(3-fluorophenyl)-1-(tetrahydro-2H-pyran-4-yl) azetidine-3-carboxamide]	> 50	261	0.192
O=C(C1CN(C2CCC(F)(F)CC2)C1)N(Cc1cn2ccc(-c3nnc(C(F)F)o3)cc2n1)c1cccc(F)c1 [Compound 4196, 1-(4,4-Difluorocyclohexyl)-N-((7-(5-(difluoromethyl)-1,3,4-oxadiazol-2-yl)imidazo[1,2-a]pyridin-2-yl)methyl)-N-(3-fluorophenyl) azetidine-3-carboxamide]	> 50	276	0.181
CC(=O)N1CC(C(=O)N(Cc2cn3ccc(-c4nnc(C(F)F)o4)cc3n2)c2cccc(F)c2)C1 [Compound 4197, 1-acetyl-N-((7-(5-(difluoromethyl)-1,3,4-oxadiazol-2-yl)imidazo[1,2-a]pyridine-2-yl)methyl)-N-(3-fluorophenyl) azetidine-3-carboxamide]	> 50	207	0.242
O=C(CO)N1CC(C(=O)N(Cc2cn3ccc(-c4nnc(C(F)F)o4)cc3n2)c2cccc(F)c2)C1 [Compound 4199, N-((7-(5-(difluoromethyl)-1,3,4-oxadiazol-2-yl)imidazo[1,2-a]pyridin-2-yl)methyl)-N-(3-fluorophenyl)-1-(2-hydroxyacetyl) azetidine-3-carboxamide]	> 50	200	0.25
O=C(C1CCC1)N1CC(C(=O)N(Cc2cn3ccc(-c4nnc(C(F)F)o4)cc3n2)c2cccc(F)c2)C1 [Compound 4200, 1-(cyclobutanecarbonyl)-N-((7-(5-(difluoromethyl)-1,3,4-oxadiazol-2-yl)imidazo[1,2-a]pyridine-2-yl)methyl)-N-(3-fluorophenyl) azetidine-3-carboxamide]	> 50	228	0.22

More lines, now with the values ahead:

IC50 (human recombinant HDAC1) [µM]	HDAC6 Selectivity (fold) (human recombinant HDAC6)	IC50 (human recombinant HDAC6) [µM]	SMILES
> 50	361	0.139	O=C(C1CN(C2COC2)C1)N(Cc1cn2ccc(-c3nnc(C(F)F)o3)cc2n1)c1cccc(F)c1 [Compound 4193, N-((7-(5-(difluoromethyl)-1,3,4-oxadiazol-2-yl)imidazo[1,2-a]pyridin-2-yl)methyl)-N-(3-fluorophenyl)-1-(oxetan-3-yl) azetidine-3-carboxamide]
> 50	379	0.132	O=C(C1CN(C2CCCCC2)C1)N(Cc1cn2ccc(-c3nnc(C(F)F)o3)cc2n1)c1cccc(F)c1 [Compound 4194, 1-cyclohexyl-N-((7-(5-(difluoromethyl)-1,3,4-oxadiazol-2-yl)imidazo[1,2-a]pyridin-2-yl)methyl)-N-(3-fluorophenyl) azetidine-3-carboxamide]
> 50	271	0.185	CCC(=O)N1CC(C(=O)N(Cc2cn3ccc(-c4nnc(C(F)F)o4)cc3n2)c2cccc(F)c2)C1 [Compound 4198]
> 50	177	0.283	O=C(C1COC1)N1CC(C(=O)N(Cc2cn3ccc(-c4nnc(C(F)F)o4)cc3n2)c2cccc(F)c2)C1 [Compound 4201, N-((7-(5-(difluoromethyl)-1,3,4-oxadiazol-2-yl)imidazo[1,2-a]pyridin-2-yl)methyl)-N-(3-fluorophenyl)-1-(oxetane-3-carbonyl) azetidine-3-carboxamide]
> 50	274	0.182	O=C(C1CN(C(=O)C(F)(F)F)C1)N(Cc1cn2ccc(-c3nnc(C(F)F)o3)cc2n1)c1cccc(F)c1 [Compound 4202, N-((7-(5-(difluoromethyl)-1,3,4-oxadiazol-2-yl)imidazo[1,2-a]pyridin-2-yl)methyl)-N-(3-fluorophenyl)-1-(2,2,2-trifluoroacetyl) azetidine-3-carboxamide]
